The source of these data is US11292782B2, “Diarylhydantoin compounds and methods of use thereof” (Nuvation Bio Inc., priority 2018, dated 2022).

One assay has as its target GR (Homo sapiens (Human), UniProt P04150). Kind of assay: GR antagonist assay (GRE-LUC luciferase, transfected COS-7 cells, with 0.1 nM dexamethasone). The format is cell-based. The settings on record: for inhibition at 10 µM: COS-7, read-out: GR Antagonism % inhibition at 10 μM. Here is the method: COS-7 cells (ATCC, Manassas, Va.) were plated in 24 well plates in DME+5% csFBS without phenol red at 70,000 cells/well. Once the cells attached to the plates (typically after overnight incubation after plating), they were transfected in OPTIMEM medium (Life Technologies) using lipofectamine reagent (Life Technologies) with 0.25 μg GRE-LUC, 25 ng pCR3.1 GR, and 10 ng CMV-renilla LUC per well. Twenty-four hours after transfection, the cells were fed with DME+5% csFBS without phenol red (Fisher Scientific, Waltham, Mass.) and treated with the test compounds (1 pM to 10 μM dose range) in the presence of 0.1 nM dexamethasone (Sigma, St. Louis, Mo.). Sixteen to twenty-four hours after treatment, a luciferase assay was performed using the Dual Luciferase assay kit (Promega, Madison, Wis.). Firefly luciferase values were normalized to Renilla luciferase numbers.

A further assay addresses Human AR (Homo sapiens (Human), UniProt P10275). Kind of assay: AR antagonist assay (GRE-LUC luciferase, transfected HEK-293 cells, with 0.1 nM R1881). The format is cell-based. The note with it: for IC50: with 0.1 nM R1881. Here is the method: Human AR cDNA cloned into pCMV vector, GRE-LUC, and CMV-renilla-LUC were used to transfect cells. HEK-293 cells (ATCC) were plated at 120,000 cells per well of a 24 well plate in DME+5% csFBS (Fisher Scientific, Waltham, Mass.). The cells were transfected using Lipofectamine (Life Technologies, Carlsbad, Calif.) with 0.25 μg GRE-LUC, 0.010 μg CMV-LUC (renilla luciferase) and 25 ng of the AR. […] Luciferase assay was performed 48 hrs after transfection. Firefly luciferase assay values were normalized to renilla luciferase values and were graphed using graphpad prism software (La Jolla, Calif.). […] The IC50 or EC50 values were determined using non-linear regression and […] logistics fitting.

Setting [1] is: in the presence of 0.1 nM dexamethasone.

Where two headings read alike, the source gives them in different places. Some results are limits rather than exact numbers.

Usually inhibition stands for the change of the read-out against control, counted positive when it falls. For orientation: IC50 means the midpoint of a concentration-inhibition curve.

Sequence of GR (P04150 whole entry): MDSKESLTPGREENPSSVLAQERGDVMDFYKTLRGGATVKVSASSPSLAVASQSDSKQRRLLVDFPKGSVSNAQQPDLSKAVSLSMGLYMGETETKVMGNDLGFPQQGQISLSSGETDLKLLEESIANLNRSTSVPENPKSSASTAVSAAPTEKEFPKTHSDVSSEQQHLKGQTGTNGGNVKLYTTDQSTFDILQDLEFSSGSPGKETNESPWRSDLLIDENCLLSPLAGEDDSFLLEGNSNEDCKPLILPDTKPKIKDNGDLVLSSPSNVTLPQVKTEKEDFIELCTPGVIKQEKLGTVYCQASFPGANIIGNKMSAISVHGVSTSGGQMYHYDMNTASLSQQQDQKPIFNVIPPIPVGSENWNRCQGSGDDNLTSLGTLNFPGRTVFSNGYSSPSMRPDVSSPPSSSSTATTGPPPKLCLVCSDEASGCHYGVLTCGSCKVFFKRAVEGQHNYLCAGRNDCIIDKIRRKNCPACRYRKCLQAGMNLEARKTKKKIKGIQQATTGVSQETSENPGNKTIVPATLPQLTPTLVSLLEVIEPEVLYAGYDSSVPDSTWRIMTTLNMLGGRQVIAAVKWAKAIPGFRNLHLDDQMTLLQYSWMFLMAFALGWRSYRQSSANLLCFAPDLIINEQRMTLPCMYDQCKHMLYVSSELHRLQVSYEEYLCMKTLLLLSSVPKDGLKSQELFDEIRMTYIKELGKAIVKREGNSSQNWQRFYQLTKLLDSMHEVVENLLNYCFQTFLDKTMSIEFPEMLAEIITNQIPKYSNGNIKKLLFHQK
Sequence of Human AR (P10275 whole entry): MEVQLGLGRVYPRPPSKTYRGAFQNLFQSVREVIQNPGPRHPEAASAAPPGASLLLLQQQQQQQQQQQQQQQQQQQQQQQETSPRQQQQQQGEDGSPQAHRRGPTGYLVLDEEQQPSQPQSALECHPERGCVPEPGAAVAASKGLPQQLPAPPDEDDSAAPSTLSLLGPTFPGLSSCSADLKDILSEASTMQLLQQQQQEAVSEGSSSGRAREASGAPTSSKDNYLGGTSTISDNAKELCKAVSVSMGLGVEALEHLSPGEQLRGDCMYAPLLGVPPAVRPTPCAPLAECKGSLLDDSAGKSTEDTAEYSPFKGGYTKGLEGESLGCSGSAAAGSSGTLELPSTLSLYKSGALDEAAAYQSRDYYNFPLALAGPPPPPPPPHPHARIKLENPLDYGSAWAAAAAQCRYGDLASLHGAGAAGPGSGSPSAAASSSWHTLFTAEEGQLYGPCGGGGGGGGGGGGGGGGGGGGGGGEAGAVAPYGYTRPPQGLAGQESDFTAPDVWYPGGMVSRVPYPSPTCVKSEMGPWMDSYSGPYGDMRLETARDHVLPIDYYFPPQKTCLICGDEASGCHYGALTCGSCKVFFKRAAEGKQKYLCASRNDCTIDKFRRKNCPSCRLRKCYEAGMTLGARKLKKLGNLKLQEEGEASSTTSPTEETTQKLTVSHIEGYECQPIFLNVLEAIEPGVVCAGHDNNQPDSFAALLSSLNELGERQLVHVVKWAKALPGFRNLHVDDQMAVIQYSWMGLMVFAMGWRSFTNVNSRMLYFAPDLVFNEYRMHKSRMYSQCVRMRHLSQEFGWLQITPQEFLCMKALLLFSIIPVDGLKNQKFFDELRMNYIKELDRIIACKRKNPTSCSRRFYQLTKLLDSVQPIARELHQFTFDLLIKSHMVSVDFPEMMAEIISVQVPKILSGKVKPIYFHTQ

For `CC#C[C@]1(O)CC[C@H]2[C@@H]3CCC4=CC(=O)CCC4=C3[C@@H](c3ccc(N(C)C)cc3)C[C@@]21C` [RU486, reference compound], the “GR antagonist assay, % of vehicle” value on GR (10 μM, in the presence of 0.1 nM dexamethasone) is given as 13%. Besides, the inhibition at 1 µM on GR (COS-7, read-out: GR antagonism inhibition at 1 μM) was 72.8%.
Turning to `CC(C)C(=O)NCc1ccc(N2C(=O)N(c3ccc(C#N)c(C(F)(F)F)c3)C(=O)C2(C)C)cc1F` [Compound 20], the values for the IC50 at Human AR and at GR (setting [1]) were 1.87 µM and more than 10 µM, respectively.
Take `Cc1nnc(C(=O)NCc2ccc(N3C(=S)N(c4ccc(C#N)c(C(F)(F)F)c4)C(=O)C3(C)C)cc2F)o1` [Compound 62]: the inhibition at 10 µM at GR amounted to 0%.
On to `CC1(C)C(=O)N(c2ccc(C#N)c(C(F)(F)F)c2)C(=S)N1c1ccc(CNC(=O)c2ncccn2)c(Cl)c1` [Compound 31], for which the IC50 against Human AR is 0.062 µM; on GR (setting [1]) it was more than 10 µM.
As to `CC1(C)C(=O)N(c2cnc(C#N)c(C(F)(F)F)c2)C(=S)N1c1ccc(CNC(=O)c2ccccn2)c(F)c1` [Compound 50], at GR (10 μM single concentration), the inhibition at 10 µM stood at 69%.
As for `CC1(C)C(=O)N(c2ccc(C#N)c(C(F)(F)F)c2)C(=S)N1c1ccc(CNC(=O)c2cocn2)c(F)c1` [Compound 54], the inhibition at 10 µM on GR is 56%.
Take `CC1(C(=O)NCc2ccc(N3C(=S)N(c4ccc(C#N)c(C(F)(F)F)c4)C(=O)C3(C)C)cc2F)CC1` [Compound 52]: on GR, the inhibition at 10 µM came out at 56%.
Regarding `CC1(C)C(=O)N(c2ccc(C#N)c(C(F)(F)F)c2)C(=O)N1c1ccc(CNC(=O)c2ncccn2)cc1` [Compound 33], 0.304 µM corresponded to half-maximal inhibition on Human AR (IC50). Moreover, the inhibition at 10 µM on GR was found to be 3%.
Turning to `CC1(C)C(=O)N(c2ccc(C#N)c(C(F)(F)F)c2)C(=S)N1c1ccc(CNC(=O)c2ccncn2)c(F)c1` [Compound 14], the inhibition at 10 µM on GR was found to be 22%.
For `Cc1ncsc1C(=O)NCc1ncc(N2C(=S)N(c3ccc(C#N)c(C(F)(F)F)c3)C(=O)C2(C)C)cc1F` [Compound 55], at GR, the inhibition at 10 µM is 58%.
The same measure, in the same setting: the value for `CC1(C)C(=O)N(c2ccc(C#N)c(C(F)(F)F)c2)C(=S)N1c1cnc(CNC(=O)c2ccccn2)c(F)c1` [Compound 53] was 66%.
Take `Cc1cccnc1C(=O)NCc1ccc(N2C(=S)N(c3ccc(C#N)c(C(F)(F)F)c3)C(=O)C2(C)C)cc1F` [Compound 40]: at GR, the inhibition at 10 µM turned out to be 48%.
Still for that read-out and setting: for `CC1(C)C(=O)N(c2ccc(C#N)c(C(F)(F)F)c2)C(=S)N1c1ccc(CNC(=O)c2ccc3cn[nH]c3c2)c(F)c1` [Compound 80] the value was 38%.
On Human AR (HEK293), `CC1CC1C(=O)NCc1ccc(N2C(=S)N(c3ccc(C#N)c(C(F)(F)F)c3)C(=O)C2(C)C)cc1F` (stereo not drawn) [Compound 41] displayed an inhibition at 1 µM of 88%.
Consider `CC1(C)C(=O)N(c2ccc(C#N)c(F)c2)C(=S)N1c1ccc(CN2Cc3ncccc3C2=O)c(F)c1` [Compound 78, 2-fluoro-4-(3-(3-fluoro-4-((5-oxo-5,7-dihydro-6H-pyrrolo[3,4-b]pyridin-6-yl)methyl)phenyl)-4,4-dimethyl-5-oxo-2-thioxoimidazolidin-1-yl)benzonitrile], for which, on GR (10 μM single concentration), the inhibition at 10 µM came out at 0%.
As for `Cn1nccc1C(=O)NCc1ccc(N2C(=S)N(c3ccc(C#N)c(F)c3)C(=O)C2(C)C)cc1F` [Compound 74], the inhibition at 10 µM on GR (10 μM single concentration) worked out at 17%.
Consider `CC1(C)C(=O)N(c2ccc(C#N)c(C(F)(F)F)c2)C(=S)N1c1ccc(CNS(=O)(=O)c2ccccn2)c(F)c1` [Compound 75], for which the inhibition at 10 µM at GR came to 40%.
The same measure, in the same setting: the value for `CC1(C)C(=O)N(c2ccc(C#N)c(C(F)(F)F)c2)C(=S)N1c1ccc(CNC(=O)c2ccc3[nH]ncc3c2)c(F)c1` [Compound 79] was 75%; that for `CN1CC(C(=O)NCc2ccc(N3C(=S)N(c4ccc(C#N)c(C(F)(F)F)c4)C(=O)C3(C)C)cc2F)C1` [Compound 63] was 0%; that for `CC1(C)C(=O)N(c2ccc(C#N)c(C(F)(F)F)c2)C(=S)N1c1ccc(CNC(=O)c2ccccc2F)c(F)c1` [Compound 47] was 46%.
